Source: patent publication US11440903B2, “Salt form and crystal form of compound as FGFR4 inhibitor and preparation method thereof” (GUANGDONG ZHONGSHENG PHARMACEUTICAL CO., LTD, priority 2017, dated 2022)
One block for each compound: values may come before it.

Experiment: Solid stability test of the crystal forms (influence factors and acceleration tests; appearance, XRPD, HPLC content and impurities)
Format: physicochemical
Conditions: for photostability (stability under light radiation), conclusion in words / stability in dark, conclusion in words / stability under acceleration conditions, conclusion in words / thermal stability (high temperature), conclusion in words: conclusion of influence factors and acceleration tests
Description: A sample of the crystal form A was placed on the bottom of a glass sample bottle, and spread to a thin layer. The sample stored under high temperature, high humidity, and acceleration conditions was placed in a bottle of which the mouth was packed with a pierced aluminum foil to ensure the sample to be sufficiently exposed to ambient air; the sample stored under light radiation conditions was placed at room temperature in a standing bottle of which the mouth was open, the sample was exposed to a light resource, and sampled for detection after being radiated by sufficient energy. Samples were taken and analyzed at various time points, and the test results were compared with the initial test results of 0 day, the inspection items included appearance, content and impurities, and the test results are shown in Table 9.
A sample of the crystal form B (10 mg) was placed on the bottom of a glass sample bottle, and spread to a thin layer. The sample stored under high temperature, high humidity, and acceleration conditions were placed in a bottle of which the mouth was packed with a pierced aluminum foil to ensure the sample to be sufficiently exposed to ambient air; the sample stored under light radiation conditions was placed at room temperature in a standing bottle of which the mouth was open, the sample was exposed to a light resource, and sampled for detection after being radiated by sufficient energy, the control sample stored in dark (open, the whole sample bottle was sealed with aluminum foil to keep the content in dark) and the sample stored under light radiation conditions were placed together to exclude environmental influence on the samples. Samples were taken and analyzed at various time points, and the test results were compared with the initial test results of 0 day, the inspection items included appearance, crystal form, content and impurities, the test results are shown in Table 10.
(§1) A sample of the crystal form C was taken and placed on the bottom of a glass sample bottle, and spread to a thin layer. The sample stored under high temperature, high humidity, and acceleration conditions was placed in a bottle of which the mouth was packed with a pierced aluminum foil to ensure the sample to be sufficiently exposed to ambient air; the sample stored under light radiation conditions was placed at room temperature in a standing bottle of which the mouth was open, the sample was exposed to a light resource, and sampled for detection after being radiated by sufficient energy. Samples were taken and analyzed at various time points, and the test results were compared with the initial test results of 0 day.
as §1, with “D” for “C”
A sample of the crystal form E (10 mg) was taken and placed on the bottom of a glass sample bottle, and spread to a thin layer. […]

[1] = Acceleration test (40° C./relative humidity of 75%, open), 1 month
[2] = Acceleration test (40° C./relative humidity of 75%, open), 2 months
[3] = Acceleration test (40° C./relative humidity of 75%, open), 3 months
[4] = Acceleration test (40° C./relative humidity of 75%, open), 10 days
[5] = Acceleration test (60° C./relative humidity of 75%, open), 1 month
[6] = Acceleration test (60° C./relative humidity of 75%, open), 2 months
[7] = Acceleration test (60° C./relative humidity of 75%, open), 3 months
[8] = Acceleration test (60° C./relative humidity of 75%, open), 10 days
[9] = High humidity (room temperature/relative humidity of 92.5%, open), 5 days
[10] = High humidity (room temperature/relative humidity of 92.5%, open), 10 days
[11] = High temperature (60° C., open), 5 days
[12] = High temperature (60° C., open), 10 days
[13] = Light radiation (total illumination: 1.2 × 10^6 Lux·hr/near ultraviolet: 200 w·hr/m^2, open), light radiation sample
[14] = Light radiation test, control sample in dark

Appearance (0 day (initial)): Off-white
Content (%) (0 day (initial)): 99.21%
Crystal Form (XRPD) (0 day (initial)): form B
Total Impurities (%) (0 day (initial)): 0.41%
Appearance [1]: Off-white
Content (%) [1]: 99.49%
Crystal Form (XRPD) [1]: form B
Total Impurities (%) [1]: 0.43%
Appearance [2]: Off-white
Crystal Form (XRPD) [2]: form B
Appearance [3]: Off-white
Content (%) [3]: 96.23%
Crystal Form (XRPD) [3]: form B
Total Impurities (%) [3]: 0.31%
Appearance [4]: Off-white
Content (%) [4]: 101.21%
Crystal Form (XRPD) [4]: form B
Total Impurities (%) [4]: 0.43%
Appearance [5]: Off-white
Content (%) [5]: 98.68%
Crystal Form (XRPD) [5]: form B
Total Impurities (%) [5]: 0.42%
Appearance [6]: Off-white
Crystal Form (XRPD) [6]: form B
Appearance [7]: Off-white
Content (%) [7]: 96.71%
Crystal Form (XRPD) [7]: form B
Total Impurities (%) [7]: 0.31%
Appearance [8]: Off-white
Content (%) [8]: 100.91%
Crystal Form (XRPD) [8]: form B
Total Impurities (%) [8]: 0.42%
Appearance [9]: Off-white
Crystal Form (XRPD) [9]: form B
Appearance [10]: Off-white
Content (%) [10]: 101.03%
Crystal Form (XRPD) [10]: form B
Total Impurities (%) [10]: 0.42%
Appearance [11]: Off-white
Crystal Form (XRPD) [11]: form B
Appearance [12]: Off-white
Content (%) [12]: 100.74%
Crystal Form (XRPD) [12]: form B
Total Impurities (%) [12]: 0.42%
Appearance [13]: Off-white
Content (%) [13]: 92.90%
Crystal Form (XRPD) [13]: form B
Total Impurities (%) [13]: 2.21%
Appearance [14]: Off-white
Content (%) [14]: 100.23%
Crystal Form (XRPD) [14]: form B
Total Impurities (%) [14]: 0.42%
photostability (stability under light radiation), conclusion in words: slight impurity generation
stability in dark, conclusion in words: good stability
stability under acceleration conditions, conclusion in words: superior
thermal stability (high temperature), conclusion in words: superior
SMILES: C=CC(=O)N[C@H]1COC[C@H]1Nc1ncc(/C=C(\F)c2c(Cl)c(OC)cc(OC)c2Cl)cn1 [Crystal Form B]

Appearance (0 day (initial)): White
Content (%) (0 day (initial)): 101.51%
Crystal Form (XRPD) (0 day (initial)): form E
Total Impurities (%) (0 day (initial)): 0.44%
Appearance [1]: White
Content (%) [1]: 102.95%
Crystal Form (XRPD) [1]: form E
Total Impurities (%) [1]: 0.33%
Appearance [4]: White
Content (%) [4]: 99.58%
Crystal Form (XRPD) [4]: form E
Total Impurities (%) [4]: 0.35%
Appearance [5]: White
Content (%) [5]: 102.48%
Crystal Form (XRPD) [5]: form E
Total Impurities (%) [5]: 0.40%
Appearance [8]: White
Content (%) [8]: 100.38%
Crystal Form (XRPD) [8]: form E
Total Impurities (%) [8]: 0.37%
Appearance [9]: White
Crystal Form (XRPD) [9]: form E
Appearance [10]: White
Content (%) [10]: 101.24%
Crystal Form (XRPD) [10]: form E
Total Impurities (%) [10]: 0.34%
Appearance [11]: White
Crystal Form (XRPD) [11]: form E
Appearance [12]: White
Content (%) [12]: 100.37%
Crystal Form (XRPD) [12]: form E
Total Impurities (%) [12]: 0.50%
Appearance [13]: White
Content (%) [13]: 98.70%
Crystal Form (XRPD) [13]: form E
Total Impurities (%) [13]: 0.49%
Appearance [14]: White
Content (%) [14]: 100.87%
Crystal Form (XRPD) [14]: form E
Total Impurities (%) [14]: 0.37%
photostability (stability under light radiation), conclusion in words: slight impurity generation
stability in dark, conclusion in words: good stability
stability under acceleration conditions, conclusion in words: superior
thermal stability (high temperature), conclusion in words: superior
SMILES: C=CC(=O)N[C@H]1COC[C@H]1Nc1ncc(/C=C(\F)c2c(Cl)c(OC)cc(OC)c2Cl)cn1.CS(=O)(=O)O [Crystal Form E]
